Source: patent US10138230B2, “Autotaxin inhibitors” (CANCER RESEARCH TECHNOLOGY LIMITED, priority 2015, dated 2018)
Structures can show the parent of a compound that is named as a salt.

biological target: human recombinant ATX (Homo sapiens (Human), UniProt Q13822); test: Autotaxin (ATX) activity Quanta Red assay; type: biochemical; conditions: 15 μM Rac-1-Palmitoyl-glycero-3-phosphocholine, 2 hours room temperature, determined in duplicate
Protocol: The ATX enzyme assay (Quanta Red assay) described in accompanying Example section may be used to measure the pharmacological effects of the compounds of the present invention.
Autotaxin (ATX) Activity Quanta Red Assay
Measuring ATX activity using an enzyme coupled Quanta Red assay (Thermo Scientific—Pierce Protein Research Products, Product #15159) was determined as follows. 8 μL human recombinant ATX (final concentration 0.8 μg/mL) in 1× Assay buffer containing 50 mM Tris-HCl (pH 8.0), 5 mM CaCl2 was added to an opaque black flat-bottom 384-well plate (Corning, #3575) containing 2 μL test compound in 40% DMSO (4% final DMSO concentration). 10 μL of Quanta Red, Horseradish peroxidase (HRP), Choline Oxidase (CO), Rac-1-Palmitoyl-glycero-3-phosphocholine solution (final concentration 1:250 for Quanta Red, 0.5units/ml HRP, 0.5units/ml CO, 15 μM Rac-1-Palmitoyl-glycero-3-phosphocholine) in 1× assay buffer (as described previously) was added to each well to start the reaction and the plate was incubated at room temperature for 2 hours. The reaction was stopped after 2 hours with a 20 μL addition of Quanta Red Stop solution (1:20 dilution in distilled water). The above-described mixture with DMSO alone was used as a positive control whereas that with DMSO alone without ATX was taken as a negative control.
For each test compound, ten concentrations were measured covering a range of 6.1 nM to 120 μM to determine IC50 values. The top concentration was decreased to 1.2 μM when a test compound's IC50 value was evaluated in low nanomolar range. Fluorescence was determined in a BMG Labtech Pherastar plus plate reader ([…]). Data were analysed using Excel fit software. IC50 values were determined in duplicate.

IC50 | Structure (SMILES)
3 nM | CN(Cc1ccc(N2CC(C(=O)Nc3nnc(CCc4ccc(Cl)cc4)s3)CC2=O)cc1)C1CCOCC1 (centres unmarked) [Compound F111, N-[5-[2-(4-chlorophenyl)ethyl]-1,3,4-thiadiazol-2-yl]-1-[4-[[methyl(tetrahydropyran-4-yl)amino]methyl]phenyl]-5-oxo-pyrrolidine-3-carboxamide]
3 nM | CCN(Cc1ccc(N2CC(C(=O)Nc3nnc(CCc4ccc(Cl)cc4)s3)CC2=O)cc1)CC(C)C (centres unmarked) [Compound F112, N-[5-[2-(4-chlorophenyl)ethyl]-1,3,4-thiadiazol-2-yl]-1-[4-[[ethyl(isobutyl)amino]methyl]phenyl]-5-oxo-pyrrolidine-3-carboxamide]
3 nM | O=C(Nc1nnc(CCC2CCCC2)s1)C1CC(=O)N(c2ccc(CN3CCC(F)CC3)cc2)C1 (centres unmarked) [Compound F113, N-[5-(2-cyclopentylethyl)-1,3,4-thiadiazol-2-yl]-1-[4-[(4-fluoro-1-piperidyl)methyl]phenyl]-5-oxo-pyrrolidine-3-carboxamide]
3 nM | O=C(Nc1nnc(CCc2ccc(Cl)cc2)s1)C1CC(=O)N(c2ccc(CN3CCCCCC3)cc2)C1 (centres unmarked) [Compound F114, 1-[4-(azepan-1-ylmethyl)phenyl]-N-[5-[2-(4-chlorophenyl)ethyl]-1,3,4-thiadiazol-2-yl]-5-oxo-pyrrolidine-3-carboxamide]
3 nM | O=C(Nc1nnc(CCC2CCCC2)s1)C1CC(=O)N(c2ccc(CN3CCCC(F)(F)C3)cc2)C1 (centres unmarked) [Compound F115, N-[5-(2-cyclopentylethyl)-1,3,4-thiadiazol-2-yl]-1-[4-[(3,3-difluoro-1-piperidyl)methyl]phenyl]-5-oxo-pyrrolidine-3-carboxamide]
3 nM | CCCN(CCC)Cc1ccc(N2CC(C(=O)Nc3nnc(CCc4ccc(Cl)cc4)s3)CC2=O)cc1 (centres unmarked) [Compound F116, N-[5-[2-(4-chlorophenyl)ethyl]-1,3,4-thiadiazol-2-yl]-1-[4-[(dipropyl-amino)methyl]phenyl]-5-oxo-pyrrolidine-3-carboxamide]
4 nM | CN1CCN(Cc2ccc(N3CC(C(=O)Nc4nnc(CCc5ccc(Cl)cc5)s4)CC3=O)cc2)CC1 (centres unmarked) [Compound F117, N-[5-[2-(4-chlorophenyl)ethyl]-1,3,4-thiadiazol-2-yl]-1-[4-[(4-methylpiperazin-1-yl)methyl]phenyl]-5-oxo-pyrrolidine-3-carboxamide]
4 nM | O=C(Nc1ncc(CCc2ccccc2)s1)C1CC(=O)N(c2ccc(CN3CCOCC3)cc2)C1 (centres unmarked) [Compound F118, 1-[4-(morpholinomethyl)phenyl]-5-oxo-N-[5-(2-phenylethyl)thiazol-2-yl]pyrrolidine-3-carboxamide]
4 nM | C[C@@H]1CN(Cc2ccc(N3CC(C(=O)Nc4nnc(CCc5ccc(Cl)cc5)s4)CC3=O)cc2)C[C@H](C)O1 (stereo partly drawn) [Compound F119, N-[5-[2-(4-chlorophenyl)ethyl]-1,3,4-thiadiazol-2-yl]-1-[4-[[(2S,6R)-2,6-dimethylmorpholin-4-yl]methyl]phenyl]-5-oxo-pyrrolidine-3-carboxamide]
4 nM | O=C(Nc1nnc(CCc2ccc(Cl)cc2)s1)C1CC(=O)N(c2ccc(CN3CCOCC3)cc2)C1 (centres unmarked) [Compound F121, N-[5-[2-(4-chlorophenyl)ethyl]-1,3,4-thiadiazol-2-yl]-1-[4-(morpholinomethyl)phenyl]-5-oxo-pyrrolidine-3-carboxamide]
4 nM | O=C(Nc1nnc(CCC2CCCC2)s1)C1CC(=O)N(c2ccc(CN3CCCOCC3)cc2)C1 (centres unmarked) [Compound F122, N-[5-(2-cyclopentylethyl)-1,3,4-thiadiazol-2-yl]-1-[4-(1,4-oxazepan-4-ylmethyl)phenyl]-5-oxo-pyrrolidine-3-carboxamide]
5 nM | O=C(Nc1nnc(CCC2CCCC2)s1)C1CC(=O)N(c2ccc(CN3CCC(F)(F)CC3)cc2)C1 (centres unmarked) [Compound F123, N-[5-(2-cyclopentylethyl)-1,3,4-thiadiazol-2-yl]-1-[4-[(4,4-difluoro-1-piperidyl)methyl]phenyl]-5-oxo-pyrrolidine-3-carboxamide]
8 nM | CN(Cc1ccc(N2C[C@@H](C(=O)Nc3ccc(CCc4ccc(F)cc4)nn3)CC2=O)cc1)C1CCOCC1 [Compound F126, (3S)-N-[6-[2-(4-fluorophenyl)ethyl]pyridazin-3-yl]-1-[4-[[methyl(tetrahydropyran-4-yl)amino]methyl]phenyl]-5-oxo-pyrrolidine-3-carboxamide]
9 nM | CCN(Cc1ccc(N2CC(C(=O)Nc3nnc(CCc4ccc(Cl)cc4)s3)CC2=O)cc1)C(C)C (centres unmarked) [Compound F127, N-[5-[2-(4-chlorophenyl)ethyl]-1,3,4-thiadiazol-2-yl]-1-[4-[[ethyl(isopropyl)amino]methyl]phenyl]-5-oxo-pyrrolidine-3-carobxamide]
1 nM | O=C(NC1CC(=O)N(c2ccc(CN3CCOCC3)cc2)C1)c1nnc(CCc2ccc(Cl)cc2)s1 (centres unmarked) [Compound F128, 5-[2-(4-chlorophenyl)ethyl]-N-[1-[4-(morpholino-methyl)phenyl]-5-oxo-pyrrolidine-3-yl]-1,3,4-thiadiazole-2-carboxamide]
2 nM | O=C(NC1CC(=O)N(c2ccc(CN3CCCOCC3)cc2)C1)c1nnc(CCc2ccc(Cl)cc2)s1 (centres unmarked) [Compound F129, 5-[2-(4-chlorophenyl)ethyl]-N-[1-[4-(1,4-oxazepan-4-ylmethyl)phenyl]-5-oxo-pyrrolidin-3-yl]-1,3,4-thiadiazole-2-carboxamide]
2 nM | O=C(N[C@@H]1CC(=O)N(c2ccc(CN3CCOCC3)cc2)C1)c1nnc(CCc2ccc(Cl)cc2)s1 [Compound F130, 5-[2-(4-chlorophenyl)ethyl]-N-[(3R)-1-[4-(morpholinomethyl)phenyl]-5-oxo-pyrrolidine-3-yl]-1,3,4-thiadiazole-2-carboxamide]
3 nM | O=C(NC1CC(=O)N(c2ccc(CN3CCCCCC3)cc2)C1)c1nnc(CCc2ccc(Cl)cc2)s1 (centres unmarked) [Compound F134, N-[1-[4-(azepan-1-ylmethyl)phenyl]-5-oxo-pyrrolidin-3-yl]-5-[2-(4-chlorophenyl)ethyl]-1,3,4-thiadiazole-2-carboxamide]
3 nM | O=C(N[C@H]1CC(=O)N(c2ccc(CN3CCOCC3)cc2)C1)c1nnc(CCc2ccc(Cl)cc2)s1 [Compound F135, 5-[2-(4-chlorophenyl)ethyl]-N-[(3S)-1-[4-(morpholinomethyl)phenyl]-5-oxo-pyrrolidin-3-yl]-1,3,4-thiadiazole-2-carboxamide]
4 nM | CC1CCN(Cc2ccc(N3CC(NC(=O)c4nnc(CCc5ccc(Cl)cc5)s4)CC3=O)cc2)CC1 (centres unmarked) [Compound F136, 5-[2-(4-chlorophenyl)ethyl]-N-[1-[4-[(4-methyl-1-piperidyl)methyl]phenyl]-5-oxo-pyrrolidin-3-yl]-1,3,4-thiadiazole-2-carboxamide]
4 nM | CC1CCN(Cc2ccc(N3C[C@@H](NC(=O)c4nnc(CCc5ccc(Cl)cc5)s4)CC3=O)cc2)CC1 [Compound F137, 1-{4-[(S)-4-({5-[2-(4-chloro-phenyl)-ethyl]-[1,3,4]thiadiazole-2-carbonyl}-amino)-2-oxo-pyrrolidin-1-yl]-benzyl}-4-methyl-piperidine hydrochloride]
5 nM | CC1CCN(Cc2ccc(N3C[C@H](NC(=O)c4nnc(CCc5ccc(Cl)cc5)s4)CC3=O)cc2)CC1 [Compound F138, 5-[2-(4-chlorophenyl)ethyl]-N-[(3R)-1-[4-[(4-methyl-1-piperidyl)methyl]phenyl]-5-oxo-pyrrolidin-3-yl]-1,3,4-thiadiazole-2-carboxamide]
5 nM | O=C(NC1CC(=O)N(c2ccc(CN3CC4CC4C3)cc2)C1)c1nnc(CCc2ccc(Cl)cc2)s1 (centres unmarked) [Compound F140, N-[1-[4-(3-azabicyclo[3.1.0]hexan-3-ylmethyl)phenyl]-5-oxo-pyrrolidin-3-yl]-5-[2-(4-chlorophenyl)ethyl]-1,3,4-thiadiazole-2-carboxamide]
9 nM | COCCN(C)Cc1ccc(N2CC(NC(=O)c3nnc(CCc4ccc(Cl)cc4)s3)CC2=O)cc1 (centres unmarked) [Compound F142, 5-[2-(4-chlorophenyl)ethyl]-N-[1-[4-[[2-methoxyethyl(methyl)amino]methyl]phenyl]-5-oxo-pyrrolidin-3-yl]-1,3,4-thiadiazole-2-carboxamide]
2 nM | O=C(N[C@@H]1CC(=O)N(c2ccc(CN3CCCCC3)cc2)C1)c1cc(CCc2ccc(Cl)cc2)on1 [Compound F143, 5-[2-(4-chlorophenyl)ethyl]-N-[(3R)-5-oxo-1-[4-(1-piperidylmethyl)phenyl]pyrrolidin-3-yl]isoxazole-3-carboxamide]

Structure (SMILES) | IC50
O=C(N[C@@H]1CCN(c2ccc(CN3CCOCC3)cc2)C1)c1nnc(CCc2ccc(Cl)cc2)s1 [Compound F131, 5-[2-(4-chloro-phenyl)-ethyl]-[1,3,4]thiadiazole-2-carboxylic acid [(R)-1-(4-morpholin-4-ylmethyl-phenyl)-pyrrolidin-3-yl]-amide hydrochloride] | 2 nM
